Test results as given in the NIST ThermoML archive (doi:10.1016/j.fluid.2007.04.023).

Conditions: Liquid, Vibrating tube method

CCCCCCCCCCCCC [tridecane]
Conditions | mass density [kg/m3]
313.01 K, 1023 kPa | 743.49
313.01 K, 2030 kPa | 744.27
313.01 K, 3025 kPa | 745.05
313.01 K, 4027 kPa | 745.74
313.01 K, 5014 kPa | 746.51
313.01 K, 6024 kPa | 747.18
313.01 K, 7021 kPa | 747.95
313.01 K, 8036 kPa | 748.69
313.01 K, 9019 kPa | 749.41
313.01 K, 10018 kPa | 750.14
313.01 K, 11030 kPa | 750.86
313.01 K, 12006 kPa | 751.51
313.01 K, 13017 kPa | 752.24
313.01 K, 14035 kPa | 752.95
313.01 K, 15021 kPa | 753.59
313.01 K, 16019 kPa | 754.27
313.01 K, 17019 kPa | 754.94
313.01 K, 18024 kPa | 755.61
313.01 K, 19025 kPa | 756.27
313.01 K, 20043 kPa | 756.91
313.01 K, 21011 kPa | 757.52
313.01 K, 22020 kPa | 758.16
313.01 K, 23018 kPa | 758.79
313.01 K, 24004 kPa | 759.44
313.01 K, 25036 kPa | 760.12
322.92 K, 1017 kPa | 736.15
322.92 K, 2006 kPa | 736.94
322.92 K, 3025 kPa | 737.83
322.92 K, 4021 kPa | 738.62
322.92 K, 5021 kPa | 739.42
322.92 K, 6043 kPa | 740.18
322.92 K, 7018 kPa | 740.9
322.92 K, 8022 kPa | 741.72
322.92 K, 9008 kPa | 742.44
322.92 K, 10012 kPa | 743.18
322.92 K, 11015 kPa | 743.93
322.92 K, 12006 kPa | 744.71
322.92 K, 13030 kPa | 745.38
322.92 K, 14010 kPa | 746.12
322.92 K, 15026 kPa | 746.81
322.92 K, 16024 kPa | 747.53
322.92 K, 17016 kPa | 748.22
322.92 K, 18010 kPa | 748.89
322.92 K, 19007 kPa | 749.56
322.92 K, 20023 kPa | 750.22
322.92 K, 21020 kPa | 750.92
322.92 K, 22010 kPa | 751.57
322.92 K, 23040 kPa | 752.26
322.92 K, 24006 kPa | 752.95
322.92 K, 25006 kPa | 753.6
332.78 K, 1015 kPa | 729.19
332.78 K, 2020 kPa | 730.06
332.78 K, 3022 kPa | 730.83
332.78 K, 4016 kPa | 731.63
332.78 K, 5020 kPa | 732.47
332.78 K, 6016 kPa | 733.27
332.78 K, 7006 kPa | 734.09
332.78 K, 8018 kPa | 734.9
332.78 K, 9013 kPa | 735.71
332.78 K, 10008 kPa | 736.52
332.78 K, 11016 kPa | 737.3
332.78 K, 12007 kPa | 738.05
332.78 K, 13012 kPa | 738.79
332.78 K, 14021 kPa | 739.55
332.78 K, 15011 kPa | 740.26
332.78 K, 16020 kPa | 741.03
332.78 K, 17015 kPa | 741.74
332.78 K, 18005 kPa | 742.47
332.78 K, 19017 kPa | 743.19
332.78 K, 20014 kPa | 743.89
332.78 K, 21016 kPa | 744.66
332.78 K, 22046 kPa | 745.35
332.78 K, 22994 kPa | 745.97
332.78 K, 24032 kPa | 746.67
332.78 K, 25030 kPa | 747.38
342.64 K, 1022 kPa | 722.03
342.64 K, 2014 kPa | 722.93
342.64 K, 3025 kPa | 723.84
342.64 K, 4021 kPa | 724.7
342.64 K, 5020 kPa | 725.59
342.64 K, 6020 kPa | 726.44
342.64 K, 7008 kPa | 727.27
342.64 K, 8026 kPa | 728.15
342.64 K, 9007 kPa | 728.98
342.64 K, 10010 kPa | 729.81
342.64 K, 11012 kPa | 730.63
342.64 K, 12014 kPa | 731.46
342.64 K, 13011 kPa | 732.27
342.64 K, 14008 kPa | 733.03
342.64 K, 15029 kPa | 733.84
342.64 K, 16006 kPa | 734.58
342.64 K, 17016 kPa | 735.35
342.64 K, 18019 kPa | 736.09
342.64 K, 19006 kPa | 736.85
342.64 K, 20001 kPa | 737.59
342.64 K, 21023 kPa | 738.34
342.64 K, 22008 kPa | 739.06
342.64 K, 23005 kPa | 739.79
342.64 K, 24032 kPa | 740.52
342.64 K, 25024 kPa | 741.14
352.47 K, 1013 kPa | 714.88
352.47 K, 2022 kPa | 715.88
352.47 K, 3010 kPa | 716.8
352.47 K, 4020 kPa | 717.71
352.47 K, 5019 kPa | 718.65
352.47 K, 6011 kPa | 719.55
352.47 K, 7017 kPa | 720.47
352.47 K, 8014 kPa | 721.35
352.47 K, 9022 kPa | 722.24
352.47 K, 10031 kPa | 723.11
352.47 K, 11010 kPa | 723.98
352.47 K, 12003 kPa | 724.82
352.47 K, 13024 kPa | 725.71
352.47 K, 14013 kPa | 726.54
352.47 K, 15007 kPa | 727.34
352.47 K, 16016 kPa | 728.16
352.47 K, 17007 kPa | 728.94
352.47 K, 18020 kPa | 729.77
352.47 K, 19011 kPa | 730.53
352.47 K, 20013 kPa | 731.29
352.47 K, 21032 kPa | 732.07
352.47 K, 22020 kPa | 732.84
352.47 K, 23020 kPa | 733.6
352.47 K, 24021 kPa | 734.36
352.47 K, 25024 kPa | 735.14
362.25 K, 1020 kPa | 707.72
362.25 K, 2026 kPa | 708.74
362.25 K, 3018 kPa | 709.77
362.25 K, 4006 kPa | 710.71
362.25 K, 5021 kPa | 711.73
362.25 K, 6019 kPa | 712.7
362.25 K, 7029 kPa | 713.67
362.25 K, 8017 kPa | 714.54
362.25 K, 9011 kPa | 715.51
362.25 K, 10011 kPa | 716.42
362.25 K, 11021 kPa | 717.35
362.25 K, 12018 kPa | 718.24
362.25 K, 13014 kPa | 719.11
362.25 K, 14000 kPa | 719.97
362.25 K, 15017 kPa | 720.85
362.25 K, 16026 kPa | 721.7
362.25 K, 17019 kPa | 722.52
362.25 K, 18034 kPa | 723.36
362.25 K, 19016 kPa | 724.17
362.25 K, 20004 kPa | 725
362.25 K, 21015 kPa | 725.8
362.25 K, 22022 kPa | 726.63
362.25 K, 23008 kPa | 727.42
362.25 K, 24034 kPa | 728.22
362.25 K, 25010 kPa | 729.02
